Biological target: Nucleotide-binding oligomerization domain-containing protein 2 (Homo sapiens, UniProt Q9HC29)
Assay: Inhibition of NOD2 in human monocytes assessed as reduction in MDP-induced TNFalpha production preincubated for 30 mins followed by MDP-stimulation and measured after 6 hrs by immunoassay

Nucleotide-binding oligomerization domain-containing protein 2, sequence (Q9HC29 whole entry, the tested form may be a part): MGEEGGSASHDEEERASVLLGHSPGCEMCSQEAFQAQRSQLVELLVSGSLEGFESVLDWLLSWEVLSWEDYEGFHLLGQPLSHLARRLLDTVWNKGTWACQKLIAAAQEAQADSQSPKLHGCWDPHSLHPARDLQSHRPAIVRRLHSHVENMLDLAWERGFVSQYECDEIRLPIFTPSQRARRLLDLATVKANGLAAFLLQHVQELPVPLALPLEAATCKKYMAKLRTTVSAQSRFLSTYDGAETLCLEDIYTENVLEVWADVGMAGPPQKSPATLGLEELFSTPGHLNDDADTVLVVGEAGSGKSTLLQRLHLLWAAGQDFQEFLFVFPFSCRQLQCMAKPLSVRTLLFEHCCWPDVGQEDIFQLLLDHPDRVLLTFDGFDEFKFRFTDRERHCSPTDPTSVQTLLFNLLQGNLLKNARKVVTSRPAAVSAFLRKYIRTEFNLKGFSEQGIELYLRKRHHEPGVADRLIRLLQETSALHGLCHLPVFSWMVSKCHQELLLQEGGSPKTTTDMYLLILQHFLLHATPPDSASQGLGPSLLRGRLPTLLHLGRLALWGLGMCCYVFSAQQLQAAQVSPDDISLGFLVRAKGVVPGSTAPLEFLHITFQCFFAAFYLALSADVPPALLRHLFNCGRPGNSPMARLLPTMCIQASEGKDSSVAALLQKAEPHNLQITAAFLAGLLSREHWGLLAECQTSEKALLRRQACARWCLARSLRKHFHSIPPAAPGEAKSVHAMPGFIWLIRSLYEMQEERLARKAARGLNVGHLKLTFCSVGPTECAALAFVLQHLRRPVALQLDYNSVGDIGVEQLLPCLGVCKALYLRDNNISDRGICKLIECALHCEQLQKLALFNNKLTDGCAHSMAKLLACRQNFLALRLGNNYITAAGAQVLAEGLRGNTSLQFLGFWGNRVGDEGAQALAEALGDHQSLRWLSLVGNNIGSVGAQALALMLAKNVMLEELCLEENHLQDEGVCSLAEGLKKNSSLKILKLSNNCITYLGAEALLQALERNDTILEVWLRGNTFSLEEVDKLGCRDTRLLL

IC50: 13 nM
Structure (SMILES): CC(C)(C)S(=O)(=O)c1cc2c(Nc3ccc4scnc4c3)ncnc2cc1OCCO

From BindingDB's records for doi:10.1021/acs.jmedchem.9b00575 (Glaxosmithkline, 2019)
